The text below walks through data of the supplement of paper PMC10307832.

What all share (experiment): relative viability (nuclei count vs DMSO), 5 days (fraction); higher = more cells survive
Compound in experiment [1]: Cc1cc([C@@H](C)Nc2ccccc2C(=O)O)c2nc(N3CCOCC3)cc(=O)n2c1 [AZD6482] + CS(=O)(=O)CCNCc1ccc(-c2ccc3ncnc(Nc4ccc(OCc5cccc(F)c5)c(Cl)c4)c3c2)o1 [Lapatinib] (partner 2 µM)
The method, boiled down:
(§1)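 Lung cancer cell lines in 1536-well plates were dosed by pin tool the day after seeding, either with one drug alone or with a fixed anchor-drug dose plus five library-drug doses (not always all listed) in √10 steps. After 5 days, cells were fixed and their nuclei stained in one step (final 0.05% Triton X-100, 1% formaldehyde, 1 ug/ml Hoechst), then counted on 4× images. Relative viability is the nuclei count in treated wells divided by that in vehicle wells. Values are medians of duplicate plates.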

Compound in experiment [2]: COc1cc2nc(N3CCCN(C)CC3)nc(NC3CCN(Cc4ccccc4)CC3)c2cc1OC + C[C@]1(O)C[C@@H](c2nc(-c3ccc4ccc(-c5ccccc5)nc4c3)c3c(N)nccn32)C1 [Linsitinib] (partner 1 µM)
The method, boiled down:
as §1

Compound in experiment [3]: COc1cc2nc(N3CCCN(C)CC3)nc(NC3CCN(Cc4ccccc4)CC3)c2cc1OC + Nc1nc2[nH]cc(CCc3ccc(C(=O)N[C@@H](CCC(=O)O)C(=O)O)cc3)c2c(=O)[nH]1 [Pemetrexed] (partner 0.2 µM)
A digest of the protocol: as §1

Compound in experiment [4]: COc1cc2nc(N3CCCN(C)CC3)nc(NC3CCN(Cc4ccccc4)CC3)c2cc1OC + Cc1nc(Nc2ncc(C(=O)Nc3c(C)cccc3Cl)s2)cc(N2CCN(CCO)CC2)n1 [Dasatinib] (partner 0.075 µM)
A digest of the protocol: as §1

On to NCI-H3122, for which the relative viability in experiment [1] (first compound 0.08 µM) amounted to 0.965; in experiment [1] (first compound 0.253 µM), 0.993; in experiment [1] (first compound 0.8 µM), 1.03; in experiment [1] (first compound 2.53 µM), 0.893; in experiment [1] (first compound 8 µM) it was 1.11; in experiment [2] (first compound 0.2 µM) it was 1.01. The relative viability in experiment [2] (first compound 0.6325 µM) amounted to 1.01; in experiment [2] (first compound 2 µM), 1.03; in experiment [2] (first compound 6.325 µM) it was 1.06; in experiment [3] (first compound 0.2 µM), 0.206; in experiment [3] (first compound 0.6325 µM) it was 0.198; in experiment [3] (first compound 2 µM), 0.19. For the same cell line, the relative viability in experiment [3] (first compound 6.325 µM) stood at 0.2; in experiment [4] (first compound 0.2 µM), 0.969; in experiment [4] (first compound 0.6325 µM) it was 0.763; in experiment [4] (first compound 2 µM), 0.894; in experiment [4] (first compound 6.325 µM), 0.765.
As to NCI-H1975, the relative viability in experiment [1] (first compound 0.08 µM) was found to be 0.727; in experiment [1] (first compound 0.253 µM), 0.802; in experiment [1] (first compound 0.8 µM), 0.814; in experiment [1] (first compound 2.53 µM), 0.626; in experiment [1] (first compound 8 µM), 0.581; in experiment [2] (first compound 0.2 µM), 0.989. The relative viability was found to be 1.02 in experiment [2] (first compound 0.6325 µM); 1.11 in experiment [2] (first compound 2 µM); 0.905 in experiment [2] (first compound 6.325 µM); 0.289 in experiment [3] (first compound 0.2 µM); 0.301 in experiment [3] (first compound 0.6325 µM); 0.309 in experiment [3] (first compound 2 µM). The relative viability was determined as 0.267 in experiment [3] (first compound 6.325 µM); 0.342 in experiment [4] (first compound 0.2 µM); 0.438 in experiment [4] (first compound 0.6325 µM); 0.464 in experiment [4] (first compound 2 µM); 0.287 in experiment [4] (first compound 6.325 µM).
Take NCI-H1944: the relative viability in experiment [1] (first compound 0.08 µM) is 0.85; in experiment [1] (first compound 0.253 µM), 0.863; in experiment [1] (first compound 0.8 µM), 0.926; in experiment [1] (first compound 2.53 µM) it was 0.527; in experiment [1] (first compound 8 µM), 0.564; in experiment [2] (first compound 0.2 µM), 1.11. Moreover, the relative viability in experiment [2] (first compound 0.6325 µM) came out at 1.23; in experiment [2] (first compound 6.325 µM), 1.13; in experiment [3] (first compound 0.2 µM), 0.598; in experiment [3] (first compound 0.6325 µM), 0.684; in experiment [3] (first compound 2 µM), 0.566; in experiment [3] (first compound 6.325 µM) it was 0.587. Moreover, the relative viability in experiment [4] (first compound 0.2 µM) stood at 0.199; in experiment [4] (first compound 0.6325 µM), 0.245; in experiment [4] (first compound 2 µM) it was 0.204; in experiment [4] (first compound 6.325 µM), 0.232.
LU99A: the relative viability in experiment [1] (first compound 0.08 µM) came to 0.972; in experiment [1] (first compound 0.253 µM), 0.881; in experiment [1] (first compound 0.8 µM) it was 0.938; in experiment [1] (first compound 2.53 µM) it was 0.751; in experiment [1] (first compound 8 µM), 0.866; in experiment [2] (first compound 0.2 µM), 0.628. The relative viability stood at 0.537 in experiment [2] (first compound 0.6325 µM); 0.552 in experiment [2] (first compound 2 µM); 0.549 in experiment [2] (first compound 6.325 µM); 0.17 in experiment [3] (first compound 0.2 µM); 0.185 in experiment [3] (first compound 0.6325 µM); 0.177 in experiment [3] (first compound 2 µM). Further, the relative viability in experiment [3] (first compound 6.325 µM) amounted to 0.187; in experiment [4] (first compound 0.2 µM), 0.588; in experiment [4] (first compound 0.6325 µM), 0.552; in experiment [4] (first compound 2 µM), 0.47; in experiment [4] (first compound 6.325 µM) it was 0.433.
For SW 1573, the relative viability in experiment [1] (first compound 0.08 µM) was 1.15; in experiment [1] (first compound 0.253 µM), 1.13; in experiment [1] (first compound 0.8 µM) it was 1.02; in experiment [1] (first compound 2.53 µM), 0.771; in experiment [1] (first compound 8 µM) it was 0.759; in experiment [2] (first compound 0.2 µM), 0.74. For the same cell line, the relative viability was 0.806 in experiment [2] (first compound 0.6325 µM); 0.768 in experiment [2] (first compound 2 µM); 0.758 in experiment [2] (first compound 6.325 µM); 0.797 in experiment [3] (first compound 0.2 µM); 0.682 in experiment [3] (first compound 0.6325 µM); 0.733 in experiment [3] (first compound 2 µM). Further, the relative viability in experiment [3] (first compound 6.325 µM) amounted to 0.623; in experiment [4] (first compound 0.2 µM), 0.453; in experiment [4] (first compound 0.6325 µM), 0.454; in experiment [4] (first compound 2 µM), 0.665; in experiment [4] (first compound 6.325 µM) it was 0.295.
